Experimental data reported in publication PMC3335822 (PLoS ONE, 2012).

Legend:
human EYA2(ED) = target: T1, human EYA2(ED) (Homo sapiens, UniProt O00167); assay: pNPP hydrolysis by the catalytic domain of EYA2; assay type: biochemical; details: substrate pNPP
T1 sequence (O00167 267-538 limits assumed): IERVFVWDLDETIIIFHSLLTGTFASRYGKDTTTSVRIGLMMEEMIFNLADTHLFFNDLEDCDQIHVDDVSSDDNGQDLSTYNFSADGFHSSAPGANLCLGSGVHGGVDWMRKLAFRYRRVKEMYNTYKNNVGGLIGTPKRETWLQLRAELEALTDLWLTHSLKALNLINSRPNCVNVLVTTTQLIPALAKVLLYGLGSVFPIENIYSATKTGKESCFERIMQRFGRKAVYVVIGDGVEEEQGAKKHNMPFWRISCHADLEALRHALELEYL
Protocol: The catalytic domain of human Eyes Absent 2 was similarly sub-cloned as a poly-histidine fusion construct in the vector pDEST-527. Fusion protein was purified by Ni-NTA chromatography and followed by size-exclusion chromatography over a Superdex-75 column. The relative purity of protein samples was determined using SDS-PAGE. PTP1B was purified as described previously.
The NCI Diversity Set II was obtained from the NCI in 96-well trays from the NIH Molecular Libraries Program and stored as 10 mM stocks in DMSO. An initial manual screen was conducted using the previously described p-nitrophenylphosphate assay and mouse Eya3(223–510) in a reaction mixture containing 20 mM MES pH 6, 2 mM MgCl2, 125 μM inhibitor, 3.4 mM para-nitrophenol phosphate (pNPP) and 0.01 μg/µL enzyme. The amount of 4-nitrophenol (pNP) produced was monitored at […] on a BioTek EL808 plate reader. A similar protocol was used to screen for inhibitor activity using hEYA3 and hEYA2(ED).
Compounds were dissolved in DMSO and diluted as needed. […] Reactions were incubated at 30°C for 30 minutes and quenched with 100 mM EDTA pH 10. IC50 values were then calculated directly from regression curves using PRISM. All reported values are the mean of two independent experiments.

HUVECs [1] = assay: HUVEC tubulogenesis assay on Matrigel; assay type: cell-based, human; details: for effect on tubulogenesis, in words: up to 7.5 μM
Protocol: Tubulogenesis assays were performed in 15-well micro-slide (ibidi LLC, Verona WI), using growth factor-reduced matrigel (BD Bioscience, Billerica, MA). The matrix was prepared by loading 10 μl of matrigel in each micro-slide well and allowing it to solidify for 30 minutes at 37°C. HUVECs were trypsinized and resuspended at 100,000 cell/ml in EBM +2.5% FBS. 50 μl (5,000 cell) were loaded on top of the solidified matrigel and the preparation was incubated for 20 hours at 37°C in a humidified incubator in a 5% CO2 atmosphere. Bright field images were taken using an inverted microscope at 2.5× magnification, which allowed imaging of the whole well in two pictures that were later merged in Photoshop. Tubular structures were traced and counted using NeuroJ (NIH, USA). In experiments with inhibitor, the inhibitor was added to the cell suspension before loading. Each sample was loaded in triplicate, and each treatment was repeated for reproducibility.

[2] = design: method as in PMID 20214587; details: cited from earlier work
HUVECs [3] = assay: HUVEC transwell migration; assay type: cell-based, human; details: 5 μM
Protocol: Human umbilical vein endothelial cells (HUVECs) were purchased from Lonza (Walkersville, MD) and maintained in the endothelial cell growth medium (PromoCell, Heidelberg, Germany), under a 5% CO2 atmosphere. MCF10A cells from ATCC were stably transfected with either pcDNA 3.2/V5-DEST (vector control), V5-EYA2 or V5-EYA2(mut). Transwell migration experiments were performed as previously described.

EYA3-SIX2 interaction = target: T2, EYA3-SIX2 interaction (Homo sapiens, UniProt Q99504); assay: His-SIX2 Ni-NTA pull-down of EYA3; assay type: binding; details: 50 μM, 15 minutes at room temperature
T2 construct: residues 127–573 of NM_001990, isoform 1; His-GST (poly-histidine, glutathione-S-transferase) with TVMV protease site (cleaved yes); made in house
T2 sequence (Q99504 127-573): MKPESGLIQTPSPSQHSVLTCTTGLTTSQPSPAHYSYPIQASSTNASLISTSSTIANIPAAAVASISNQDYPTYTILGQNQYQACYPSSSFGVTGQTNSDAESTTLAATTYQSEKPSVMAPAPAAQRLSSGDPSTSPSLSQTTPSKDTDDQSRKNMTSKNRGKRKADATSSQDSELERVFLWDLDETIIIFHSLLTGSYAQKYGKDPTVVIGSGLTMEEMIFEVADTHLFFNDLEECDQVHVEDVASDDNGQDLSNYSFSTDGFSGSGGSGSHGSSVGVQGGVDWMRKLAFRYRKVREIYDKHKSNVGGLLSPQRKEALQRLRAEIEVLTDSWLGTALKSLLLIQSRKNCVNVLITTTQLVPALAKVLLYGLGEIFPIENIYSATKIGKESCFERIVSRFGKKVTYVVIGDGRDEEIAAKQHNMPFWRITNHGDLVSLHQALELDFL
T2 sequence (Q9NPC8 1-291 partner): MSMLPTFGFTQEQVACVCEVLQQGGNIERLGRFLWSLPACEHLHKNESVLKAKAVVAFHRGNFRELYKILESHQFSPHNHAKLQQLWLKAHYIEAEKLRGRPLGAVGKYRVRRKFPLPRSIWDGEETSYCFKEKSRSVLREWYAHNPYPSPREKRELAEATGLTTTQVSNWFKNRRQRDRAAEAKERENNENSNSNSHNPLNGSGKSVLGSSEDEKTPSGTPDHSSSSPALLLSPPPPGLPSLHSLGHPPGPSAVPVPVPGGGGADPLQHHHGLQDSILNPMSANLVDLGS
Excerpt: The catalytic domain of the EYAs also mediates its interaction with the SIX proteins. This complex then translocates to the nucleus where the SIX-EYA complex can activate transcription.

CYP2C9 = tested on: CYP2C9; design: method as in PMID 20214587; details: cited from earlier work
mouse aortic rings = assay: Mouse aortic ring assay (ex vivo sprouting angiogenesis, VEGF-stimulated); details: 5 μM, 10 days
Protocol: The preparation of rat collagen and the aortic ring assay were carried out as previously described, [50]. Mice were 4 to 6 week old female C57BL/6, and aortic ring explants were cultured at 37°C in a humidified incubator under a 5% CO2 atmosphere.
Each inhibitor was serially diluted (between 0.25 mM and 7.5 mM) to stocks of 1000× the working concentrations in sterile 100% DMSO in order to achieve an equal final concentration of DMSO (0.1% v/v) in all culture conditions. For the experiments, the compounds were diluted in EBM containing 2.5% FBS, penicillin/streptomycin and 20 ng/ml VEGF165 (R&D Systems, Minneapolis, MN). Each compound was applied from the first day of culture over a 10-day period with medium change every two days. In all experiments, the vehicle (DMSO, 0.1%) was used as control. The sprouting density was derived from counting the number of branches per ring, and the extent of angiogenic sprouting was estimated by measuring the total surface area covered by the vessels.

Row | IC50 (human EYA2(ED)) [µM] | SMILES | effect on tubulogenesis, in words (HUVECs [1]) | hepatotoxicity [2] | effect on HUVEC cell motility (HUVECs [3]) | effect on the interaction between EYA3 and SIX2 (EYA3-SIX2 interaction) | inhibition of CYP2C9 (CYP2C9) | effect on sprouting of aortic rings (mouse aortic rings) | reduction in tube formation (HUVECs [1]; 2.5 μM) [%]
1 | 10.3 | CCc1oc2ccccc2c1C(=O)c1cc(Br)c(O)c(Br)c1 [Compound 1, Benzbromarone] | effective only at the highest concentrations tested (7.5 μM) | reported hepatotoxicity | attenuated HUVEC cell motility | does not affect the interaction between EYA3 and SIX2 | inhibit CYP2C9 | shorter sprouts and significantly lower microvascular density | –
2 | – | CCc1oc2ccccc2c1C(=O)c1ccc(O)cc1 [Compound 1a, Benzarone] | potently inhibited tubulogenesis in a dose-dependent fashion | reported hepatotoxicity | attenuated HUVEC cell motility | – | inhibit CYP2C9 | shorter sprouts and significantly lower microvascular density | ~50
